Results published in US20100273772A1, “Bisaryl Alkynylamides as Negative Allosteric Modulators of Metabotropic Glutamate Receptor 5 (MGLUR5)” (Wyeth LLC, priority 2009, published 2010).

How the values were obtained:
rat mGluR5 receptor = molecular target: T1, rat mGluR5 receptor (Rattus norvegicus, UniProt P31424); assay: [3H]-MPEP binding HEK-293 cell membranes expressing a rat mGluR5 receptor; details: displacement of 4 nM [3H]-MPEP, HEK-293 cell membranes expressing rat mGluR5, 60 minute at room temperature; read-out: mGluR5 Ligand Binding DR Ki
T1 construct: expressed in transfected cells; host or cells: HEK-293
T1 sequence (P31424 21-1203): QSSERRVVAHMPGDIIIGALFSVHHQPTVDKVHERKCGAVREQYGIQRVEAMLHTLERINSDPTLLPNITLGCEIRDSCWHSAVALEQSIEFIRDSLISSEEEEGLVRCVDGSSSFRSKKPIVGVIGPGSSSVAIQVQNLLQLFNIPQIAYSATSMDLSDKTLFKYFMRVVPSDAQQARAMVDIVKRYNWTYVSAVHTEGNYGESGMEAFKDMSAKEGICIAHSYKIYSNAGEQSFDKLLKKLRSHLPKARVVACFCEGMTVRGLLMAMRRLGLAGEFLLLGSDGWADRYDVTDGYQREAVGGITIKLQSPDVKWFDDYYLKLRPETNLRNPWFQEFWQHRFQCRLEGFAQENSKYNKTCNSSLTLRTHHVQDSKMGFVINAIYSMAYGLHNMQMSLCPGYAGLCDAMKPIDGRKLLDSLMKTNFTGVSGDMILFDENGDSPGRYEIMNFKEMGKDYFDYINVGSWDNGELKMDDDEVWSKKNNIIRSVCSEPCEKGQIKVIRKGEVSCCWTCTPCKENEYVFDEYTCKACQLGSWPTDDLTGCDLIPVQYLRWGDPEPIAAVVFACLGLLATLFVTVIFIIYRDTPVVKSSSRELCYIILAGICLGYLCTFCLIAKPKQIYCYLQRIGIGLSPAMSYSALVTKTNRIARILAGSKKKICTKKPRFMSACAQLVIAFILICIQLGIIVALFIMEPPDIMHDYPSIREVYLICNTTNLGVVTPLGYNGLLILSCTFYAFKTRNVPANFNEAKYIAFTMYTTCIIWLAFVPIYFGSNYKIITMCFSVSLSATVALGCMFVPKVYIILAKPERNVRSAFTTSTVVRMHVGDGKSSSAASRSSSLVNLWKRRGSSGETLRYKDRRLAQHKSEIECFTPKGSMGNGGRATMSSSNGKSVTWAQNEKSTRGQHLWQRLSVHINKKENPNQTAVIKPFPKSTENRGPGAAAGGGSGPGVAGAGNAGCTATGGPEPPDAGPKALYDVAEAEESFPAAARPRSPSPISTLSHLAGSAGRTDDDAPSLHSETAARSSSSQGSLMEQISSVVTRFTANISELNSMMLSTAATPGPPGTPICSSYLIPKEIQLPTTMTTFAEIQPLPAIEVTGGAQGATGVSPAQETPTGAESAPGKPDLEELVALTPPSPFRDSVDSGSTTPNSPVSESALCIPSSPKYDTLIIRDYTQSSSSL
In short: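 Membranes from HEK-293 cells expressing rat mGluR5 incubated 60 min at room temperature in 50 mM Tris pH 7.5 with 4 nM [3H]-MPEP; 10 μM MPEP defines non-specific binding; filtration read-out. Single-point % inhibition at 10 μM, then Ki from IC50 via Cheng-Prusoff for actives.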

[1] = molecular target: T2, metabotropic glutamate receptor 5 (Rattus norvegicus, UniProt P31424); assay: FLIPR Calcium 3 fluorescence-based functional assay of intracellular calcium, mGluR5 antagonist activity; type: cell-based; details: inhibition of glutamate (EC90, ~50 uM) stimulated calcium levels, mGluR5 HEK-293 cells; read-out: mGluR5 FLIPR MP Antagonist DR IC50
T2 construct: expressed in transfected cells; host or cells: HEK-293
T2 sequence (P31424 21-1203): as above
In short: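 mGluR5 HEK-293 cells (50,000/well, plated overnight) are loaded with FLIPR Calcium 3 dye for 1 h at 37 °C. Compound is added and fluorescence recorded on FLIPR. Inhibition of the glutamate-stimulated calcium signal is given as %, with IC50 from a 4-parameter logistic fit.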

Ki (rat mGluR5 receptor) [nM] | IC50 [1] [nM] | Structure (SMILES)
0.3 | 30 | Cc1ccc(C(=O)N2CCc3ccc(Cl)cc3C2)cc1C#Cc1ccccn1 [Example 83, 7-chloro-2-[4-methyl-3-(pyridin-2-ylethynyl)benzoyl]-1,2,3,4-tetrahydroisoquinoline]
0.3 | 48 | Cc1ccc(C(=O)N2CCc3c(Cl)cccc3C2)cc1C#Cc1ccccn1 [Example 84, 5-chloro-2-[4-methyl-3-(pyridin-2-ylethynyl)benzoyl]-1,2,3,4-tetrahydroisoquinoline]
4 | 6 | Cc1ccc(C(=O)N2CCc3ncccc3C2)cc1C#Cc1ccccn1 [Example 85, 6-{[4-Methyl-3-(pyridin-2-ylethynyl)phenyl]carbonyl}-5,6,7,8-tetrahydro-1,6-naphthyridine]
11 | 8 | Cc1ccc(C(=O)N2CCc3cccnc3C2)cc1C#Cc1ccccn1 [Example 86, 7-{[4-Methyl-3-(pyridin-2-ylethynyl)phenyl]carbonyl}-5,6,7,8-tetrahydro-1,7-naphthyridine]
14 | 2 | Cc1ccc(C(=O)N2CCc3nc[nH]c3C2)cc1C#Cc1ccccn1 [Example 87, 5-{[4-methyl-3-(pyridin-2-ylethynyl)phenyl]carbonyl}-4,5,6,7-tetrahydro-3H-imidazo[4,5-c]pyridine]
6 | 4 | Cc1ccc(C(=O)N2CCc3[nH]ncc3C2)cc1C#Cc1ccccn1 [Example 88, 5-{[4-methyl-3-(pyridin-2-ylethynyl)phenyl]carbonyl}-4,5,6,7-tetrahydro-1H-pyrazolo[4,3-c]pyridine]
4 | 4 | Cc1nc2c(s1)CN(C(=O)c1ccc(C)c(C#Cc3ccccn3)c1)CC2 [Example 89, 2-methyl-5-{[4-methyl-3-(pyridin-2-ylethynyl)phenyl]carbonyl}-4,5,6,7-tetrahydro[1,3]thiazolo[5,4-c]pyridine]
16 | 9 | Cc1nc2c(o1)CCN(C(=O)c1ccc(C)c(C#Cc3ccccn3)c1)C2 [Example 90, 2-methyl-5-{[4-methyl-3-(pyridin-2-ylethynyl)phenyl]carbonyl}-4,5,6,7-tetrahydro[1,3]oxazolo[4,5-c]pyridine]
6 | 4 | Cc1ccc(C(=O)N2Cc3cccnc3C2)cc1C#Cc1ccccn1 [Example 91, 6-{[4-methyl-3-(pyridin-2-ylethynyl)phenyl]carbonyl}-6,7-dihydro-5H-pyrrolo[3,4-b]pyridine]
3 | 7 | O=C(c1ccc(C(F)(F)F)c(C#Cc2ccccn2)c1)N1Cc2cccnc2C1 [Example 92, 6-{[3-(Pyridin-2-ylethynyl)-4-(trifluoromethyl)phenyl]carbonyl}-6,7-dihydro-5H-pyrrolo[3,4-b]pyridine]
2 | 42 | O=C(c1ccc(C(F)(F)F)c(C#Cc2ccccn2)c1)N1CCc2ccccc2C1 [Example 93, 2-{[3-(Pyridin-2-ylethynyl)-4-(trifluoromethyl)phenyl]carbonyl}-1,2,3,4-tetrahydroisoquinoline]
2 | 152 | O=C(c1ccc(C(F)(F)F)c(C#Cc2ccccn2)c1)N1CCc2ccc(Cl)cc2C1 [Example 94, 7-Chloro-2-{[3-(pyridin-2-ylethynyl)-4-(trifluoromethyl)phenyl]carbonyl}-1,2,3,4-tetrahydroisoquinoline]
4 | 163 | O=C(c1ccc(C(F)(F)F)c(C#Cc2ccccn2)c1)N1CCc2c(Cl)cccc2C1 [Example 95, 5-Chloro-2-{[3-(pyridin-2-ylethynyl)-4-(trifluoromethyl)phenyl]carbonyl}-1,2,3,4-tetrahydroisoquinoline]
5 | 69 | O=C(c1ccc(C(F)(F)F)c(C#Cc2ccccn2)c1)N1Cc2ccccc2C1 [Example 96, 2-{[3-(Pyridin-2-ylethynyl)-4-(trifluoromethyl)phenyl]carbonyl}-2,3-dihydro-1H-isoindole]
1 | 13 | O=C(c1ccc(C(F)(F)F)c(C#Cc2ccccn2)c1)N1CCc2ncc(Br)cc2C1 [Example 97, 3-Bromo-6-{[3-(pyridin-2-ylethynyl)-4-(trifluoromethyl)phenyl]carbonyl}-5,6,7,8-tetrahydro-1,6-naphthyridine]
4 | 7 | O=C(c1ccc(C(F)(F)F)c(C#Cc2ccccn2)c1)N1CCc2ncccc2C1 [Example 98, 6-{[3-(Pyridin-2-ylethynyl)-4-(trifluoromethyl)phenyl]carbonyl}-5,6,7,8-tetrahydro-1,6-naphthyridine]
4 | 5 | O=C(c1ccc(C(F)(F)F)c(C#Cc2ccccn2)c1)N1CCc2[nH]ncc2C1 [Example 100, 5-{[3-(Pyridin-2-ylethynyl)-4-(trifluoromethyl)phenyl]carbonyl}-4,5,6,7-tetrahydro-1H-pyrazolo[4,3-c]pyridine]
36 | 18 | O=C(c1ccc(C(F)(F)F)c(C#Cc2ccccn2)c1)N1CCc2[nH]cnc2C1 [Example 101, 5-{[3-(Pyridin-2-ylethynyl)-4-(trifluoromethyl)phenyl]carbonyl}-4,5,6,7-tetrahydro-1H-imidazo[4,5-c]pyridine]
